GI50 and TGI data for seven compounds are collected here from PubChem BioAssay (NCI).

Some test systems named below: A498 renal; KM12 colon; M14 melanoma; MDA-MB-435; MOLT-4 leukemia; NCI-H460 lung; OVCAR-4 ovarian; TK-10 renal; U251 CNS; UO-31 renal.
Common to all, as to assay: NCI anticancer screen, dose series, 48 h

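How tested: cells in 96-well plates exposed to compound for 48 hours at five concentrations. GI50 = concentration required for 50% inhibition of growth. TGI: concentration producing complete growth inhibition.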

Consider `Cc1ccc(-c2nc([P+](c3ccccc3)(c3ccccc3)c3ccccc3)c(Nc3ccccc3)o2)cc1`, for which the GI50 in the test with A498 renal is 1.12 µM; in the test on KM12 colon, 0.519 µM; with M14 melanoma it was 0.655 µM; in the test with MDA-MB-435, 0.457 µM; with MOLT-4 leukemia it was 0.477 µM; in the test with NCI-H460 lung, 0.515 µM. Moreover, the GI50 in the test with OVCAR-4 ovarian is 0.32 µM; in the test on TK-10 renal it was 1.27 µM; in the test on U251 CNS it was 0.585 µM; with UO-31 renal it was 0.421 µM. The TGI was 2.46 µM in the test on A498 renal; 1.83 µM with KM12 colon; 2.08 µM in the test on M14 melanoma; 1.63 µM in the test with MDA-MB-435; 2.06 µM with MOLT-4 leukemia; 1.8 µM in the test on NCI-H460 lung. In addition, the TGI was 1.26 µM in the test with OVCAR-4 ovarian, 2.78 µM in the test on TK-10 renal, 2.14 µM in the test with U251 CNS and 1.73 µM with UO-31 renal.

Turning to `Clc1ccccc1C(Nc1ncccn1)Nc1ncccn1`, the TGI with A498 renal, with KM12 colon, in the test on M14 melanoma, in the test with MDA-MB-435, in the test on MOLT-4 leukemia and with NCI-H460 lung was more than 100 µM throughout. Further, the TGI in the test with OVCAR-4 ovarian, in the test with TK-10 renal, in the test on U251 CNS and with UO-31 renal was more than 100 µM throughout.

On to `CN(C)c1ccc(/C=c2/c3ccccc3n3c2c2cc(F)ccc2[n+]3C)cc1`, for which the GI50 with A498 renal is 5.24 µM; with KM12 colon it was 4.28 µM; with M14 melanoma it was 4.02 µM; with MDA-MB-435, 3.84 µM; in the test with MOLT-4 leukemia, 8.63 µM; with NCI-H460 lung, 4.72 µM. Further, the GI50 was 15.7 µM in the test on OVCAR-4 ovarian, 3.83 µM with TK-10 renal, 0.905 µM with U251 CNS and 8.21 µM with UO-31 renal. The TGI in the test with A498 renal worked out at 17.4 µM; in the test on KM12 colon it was 19.4 µM; in the test on M14 melanoma, 22.9 µM; in the test with MDA-MB-435, 11.9 µM; in the test with MOLT-4 leukemia, 27.5 µM; in the test with NCI-H460 lung it was 26.6 µM. The TGI with OVCAR-4 ovarian is 34.2 µM; in the test with TK-10 renal, 14.7 µM; in the test with UO-31 renal it was more than 34.3 µM.

Turning to `COc1ccc(Nc2nc3cc(N)cc(N)c3nc2-c2ccccc2)cc1OC`, the GI50 is 11.7 µM in the test on A498 renal; 14.8 µM with KM12 colon; 21 µM in the test on M14 melanoma; 16.3 µM with MDA-MB-435; 6.91 µM with MOLT-4 leukemia; 20.5 µM in the test with NCI-H460 lung. Besides, the GI50 was 18.7 µM with OVCAR-4 ovarian, 20.9 µM in the test on TK-10 renal, 26 µM in the test on U251 CNS and 28.1 µM in the test with UO-31 renal. The TGI with A498 renal is 55.7 µM; in the test on KM12 colon it was 32 µM; with M14 melanoma, 69.8 µM; in the test on MDA-MB-435 it was 32.1 µM; with MOLT-4 leukemia, more than 100 µM; with NCI-H460 lung it was more than 100 µM. The TGI is 52.1 µM in the test with OVCAR-4 ovarian, 58.5 µM with TK-10 renal, more than 100 µM in the test with U251 CNS and more than 100 µM in the test with UO-31 renal.

On to `COc1cc(C2C3=C(COC3=O)N(CCO)c3cc4c(cc32)OCO4)cc(OC)c1O` (centres undefined), for which the GI50 was 1.16 µM with A498 renal; 1.35 µM in the test with KM12 colon; 1.49 µM in the test with M14 melanoma; 0.343 µM in the test with MDA-MB-435; 2.15 µM with MOLT-4 leukemia; 1.69 µM in the test with NCI-H460 lung. The GI50 in the test on OVCAR-4 ovarian is 2.99 µM; in the test on TK-10 renal, 4.54 µM; with U251 CNS it was 2.19 µM; in the test on UO-31 renal it was 2.02 µM. Further, the TGI was 3.92 µM in the test with A498 renal; more than 20.6 µM with KM12 colon; 7.64 µM in the test on M14 melanoma; 1.53 µM in the test on MDA-MB-435; more than 24.9 µM in the test on MOLT-4 leukemia; more than 15.9 µM with NCI-H460 lung. The TGI in the test on OVCAR-4 ovarian was more than 50 µM; with TK-10 renal it was more than 50 µM; with U251 CNS, more than 50 µM; with UO-31 renal, more than 37.2 µM.

As for `Cc1ccc(NCCN(C)C)c2c(=O)c3ccccc3sc12`, the GI50 with A498 renal is 1.14 µM; in the test with KM12 colon, 1.66 µM; in the test on M14 melanoma, 1.59 µM; with MDA-MB-435, 1.71 µM; in the test with MOLT-4 leukemia, 1.13 µM; in the test with NCI-H460 lung it was 1.41 µM. Also, the GI50 with OVCAR-4 ovarian is 2.67 µM; with TK-10 renal, 2.34 µM; with U251 CNS, 1.83 µM; with UO-31 renal it was 1.28 µM. For the same compound, the TGI in the test on A498 renal is 2.52 µM; in the test on KM12 colon, 3.1 µM; in the test with M14 melanoma, 3.05 µM; in the test on MDA-MB-435 it was 3.47 µM; with MOLT-4 leukemia, 4.33 µM; in the test on NCI-H460 lung, 3.01 µM. In addition, the TGI came to 8.76 µM in the test with OVCAR-4 ovarian, 5.45 µM in the test on TK-10 renal, 3.82 µM with U251 CNS and 2.85 µM with UO-31 renal.

For the compound `Oc1[nH]c2ccccc2c1N=Nc1c(F)c(F)c(F)c(F)c1F`, the TGI is more than 100 µM in the test on A498 renal; more than 61.9 µM in the test with KM12 colon; more than 100 µM in the test with M14 melanoma; more than 100 µM with MDA-MB-435; 31.8 µM with MOLT-4 leukemia; more than 100 µM in the test on NCI-H460 lung. The TGI in the test with OVCAR-4 ovarian is more than 100 µM; in the test on TK-10 renal, 62.8 µM; in the test on U251 CNS it was more than 100 µM; in the test with UO-31 renal, more than 91.8 µM.
